Measured values from PubChem BioAssay (NCI).
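Five concentrations, 48 hours, 96-well plates. At the GI50, growth is halved. TGI is the concentration that stops growth completely.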

Columns and labels:
Assay in all cases: NCI-60 cell line screen, 48 h
[1] = test system: HL-60(TB) leukemia
[2] = test system: IGROV1 ovarian
[3] = test system: SNB-75 CNS
[4] = test system: CAKI-1 renal
[5] = test system: HOP-62 NSCLC
[6] = test system: DU-145 prostate
[7] = test system: BT-549 breast
[8] = test system: COLO 205 colon
[9] = test system: TK-10 renal
[10] = test system: MCF7 breast
[11] = test system: SF-268 CNS
[12] = test system: ACHN renal
[13] = test system: OVCAR-8 ovarian
[14] = test system: 786-0 renal
[15] = test system: RXF 393 renal
[16] = test system: A498 renal
[17] = test system: SK-MEL-28 melanoma
[18] = test system: SR leukemia
[19] = test system: MDA-MB-435
[20] = test system: HOP-92 NSCLC
[21] = test system: OVCAR-4 ovarian
[22] = test system: U251 CNS
[23] = test system: UO-31 renal
[24] = test system: SK-OV-3 ovarian
[25] = test system: SN12C renal
[26] = test system: HS 578T breast
[27] = test system: SF-539 CNS
[28] = test system: EKVX NSCLC
[29] = test system: MALME-3M melanoma

Nc1n[nH]c2cccc(C#Cc3cccc(NC(=O)Nc4cc(C(F)(F)F)cc(C(F)(F)F)c4)c3)c12
GI50 [1]: 1.81 µM | TGI [1]: 7.04 µM | GI50 [2]: 2.66 µM | TGI [2]: 7.78 µM | GI50 [3]: 0.287 µM | TGI [3]: 10.6 µM | GI50 [4]: 2.36 µM | TGI [4]: 11.5 µM | GI50 [5]: 1.93 µM | TGI [5]: 4.25 µM | GI50 [6]: 3.5 µM | TGI [6]: 12.5 µM | GI50 [7]: 1.97 µM | TGI [7]: 5.3 µM | GI50 [8]: 1.88 µM | TGI [8]: 4 µM | GI50 [9]: 4.2 µM | TGI [9]: 12.9 µM | GI50 [10]: 2.52 µM | TGI [10]: 7.36 µM | GI50 [11]: 3.2 µM | TGI [11]: 14 µM | GI50 [12]: 2.71 µM | TGI [12]: 9.39 µM | GI50 [13]: 2.93 µM | TGI [13]: 10 µM | GI50 [14]: 2.16 µM | TGI [14]: 4.78 µM | GI50 [15]: 2.55 µM | TGI [15]: 6.69 µM | GI50 [16]: 3.84 µM | TGI [16]: 10.4 µM | GI50 [17]: 2.76 µM | TGI [17]: 8.6 µM | GI50 [18]: 2.58 µM | TGI [18]: 15.3 µM | GI50 [19]: 1.92 µM | TGI [19]: 4.18 µM | GI50 [20]: 1.9 µM | TGI [20]: 5.12 µM | GI50 [21]: 2.6 µM | TGI [21]: 8.39 µM | GI50 [22]: 2.3 µM | TGI [22]: 6.22 µM | GI50 [23]: 3.11 µM | TGI [23]: 10.3 µM | GI50 [24]: 3.87 µM | TGI [24]: 12.3 µM | GI50 [25]: 1.52 µM | TGI [25]: 3.31 µM | GI50 [26]: 1.97 µM | TGI [26]: 7.7 µM | GI50 [27]: 1.52 µM | TGI [27]: 4.28 µM | GI50 [28]: 2.71 µM | TGI [28]: 8.02 µM | GI50 [29]: 1.6 µM | TGI [29]: 4.24 µM
